Test results reported in US20040077599A1, “Novel spiro[2.4]heptane amino carboxy compounds and derivatives thereof” (priority 2000, published 2004).
Read-outs that look alike come from different tables or passages of the source.

Legend:
[1] = tested on: Group II/III metabotropic glutamate receptors (mGluRs); experiment: Cyclic AMP assay (forskolin-induced cyclic AMP accumulation in cortical slices); type: cell-based, Sprague Dawley rat; conditions: rat cortical slices; for Group II/III Agonist: inhibits forskolin-induced cyclic AMP accumulation; for Group II/III Antagonist: inhibits the glutamate-caused decrease in forskolin-induced cyclic AMP accumulation
Protocol: The assay of cyclic AMP formation can be performed as described previously (Tovey et al., Clinica Chimica Acta, 56, 221-234, 1974). The assay can be modelled on the cyclic AMP assay kit available from Amersham, which in turn, is based on the assay created by Tovey et al. Briefly, samples are prepared from Sprague Dawley rat (225-250 g) cortical slices. Slices are incubated with the drug, and then challenged with forskolin to induce cyclic AMP release. Following termination of the reaction by boiling, the slices are homogenized and centrifuged. Samples of supernatant are then incubated for 2-3 hours with a known quantity of [^3H]cAMP and a binding protein. When the incubation is complete, the bound cyclic AMP is separated from the free cyclic AMP by centrifugation with charcoal. The resulting supernatant (containing free cyclic AMP) is then analyzed by liquid scintillation counting. The amount of unbound cyclic AMP can be calculated from a standard curve previously determined with various samples of free cyclic AMP.
Group II/III metabotropic glutamate receptors (mGluRs) are negatively coupled to adenylate cyclase, and agonists of these receptors lead to a decrease in intracellular cyclic AMP accumulation.
The assay has been modeled on the cyclic AMP assay kit available from Amersham. This kit, in turn, is based on the assay created by Tovey et al. (1974). Briefly, the samples were prepared from Sprague Dawley rat (225-250 g) cortical slices. Slices were incubated with the test compound (drug), and then challenged with forskolin to induce cyclic AMP release. Following termination of the reaction by boiling, the slices were homogenized and centrifuged. Samples of supernatant were then incubated for 2-3 hours with a known quantity of [^3H]cAMP and a binding protein. When the incubation was complete, the bound cyclic AMP was separated from the free cyclic AMP by centrifugation with charcoal. The resulting supernatant (containing free cyclic AMP) was then analyzed by liquid scintillation counting. The amount of unbound cyclic AMP was calculated from a standard curve previously determined with various samples of free cyclic AMP.
If the drugs tested inhibit forskolin-induced cyclic AMP accumulation, they are considered to be Group II/III agonists. Conversely, if they inhibit the decrease in forskolin-induced cyclic AMP accumulation caused by glutamate, they are considered to be Group II/III antagonists.

[2] = tested on: Group I metabotropic glutamate receptors (mGluRs); experiment: Phosphatidylinositol assay (inositol phosphate accumulation in neonatal tissue slices); type: cell-based, Sprague Dawley rat; conditions: neonatal rat slices, 45 minutes; for EC50: antagonist mode vs ACPD; for Group I Agonist: increase in intracellular free inositol phosphate accumulation; for Group I Antagonist: inhibits inositol phosphate accumulation induced by ACPD
Protocol: Phosphatidylinositol (PI) hydrolysis can be measured as described below: Briefly, cross-chopped slices are prepared from neonatal Sprague Dawley rat tissue (age: p7-p14). The slices are pre-labelled with [^3H] myo-inositol. Following pre-labelling, the slices are incubated with the test drugs and standard (known Group I agonists i.e. ACPD) for a period of 45 minutes. The incubation is terminated by the addition of chloroform/methanol/HCl (100:200:2). The resulting mixture is separated into two phases by the addition of chloroform and distilled water. The aqueous fraction is applied to ion exchange columns, and inositol phosphates are eluted using 800 mM Ammonium Formate/100 mM Formic Acid. The eluent is then analyzed using liquid scintillation counting. The amount of inositol phosphate accumulation is expressed as a percentage of that induced by ACPD.
Group I metabotropic glutamate receptors (mGluRs) are positively coupled on inositol phosphate metabolism. Agonists at these receptors lead to an increase in intracellular free inositol phosphates, while antagonists inhibit the increase in intracellular free inositol phosphate induced by standard agonists (i.e. ACPD).
Cross-chopped slices were prepared from neonatal Sprague Dawley rat tissue (age: p7-p14). The slices were pre-labelled with [^3H] myo-inositol. Following pre-labelling, the slices were incubated with the test compounds and standard (known Group I agonists i.e. ACPD) for a period of 45 minutes. The incubation was terminated by the addition of chloroform/methanol/HCl (100:200:2). The resulting mixture was separated into two phases by the addition of chloroform and distilled water. The aqueous fraction was applied to ion exchange columns, and inositol phosphates were eluted using 800 mM Ammonium Formate/100 mM Formic Acid. The eluent was then analyzed using liquid scintillation counting. The amount of inositol phosphate accumulation was expressed as a percentage of that induced by ACPD.
If the drugs cause an increase in intracellular free inositol phosphate accumulation, they are considered to be Group I agonists. […]

[3] = antagonist mode vs glutamate, read-out: EC50 (M), Group II/III Antagonist
[4] = agonist mode, read-out: EC50 (M), Group II/III Agonist

Compound | EC50 [1, 3] [M] | Group II/III Agonist [1] | Group II/III Antagonist [1] | EC50 [2] [nM] | Group I Agonist [2] | Group I Antagonist [2] | EC50 [1, 4] [M]
N[C@@]1(C(=O)O)CCCC12CC2C(=O)O (some centres unmarked) [Compound 7, Spiro[2.4]heptane-4-amino-1,4-dicarboxylic acid] | 1.4e-09 | No | Yes | 220 | No | Yes | –
NC(C(=O)O)C1CCCC12CC2C(=O)O (centres unmarked) [Compound 27, Spiro[4,2]heptane-1-carboxy-4-glycine] | – | Yes | Yes | 0.84 | No | Yes | 8.7e-11
N[C@]1(C(=O)O)CCCC12CC2C(=O)O (some centres unmarked) [Compound 8, Spiro[2.4]heptane-4-amino-1,4-dicarboxylic acid] | 1e-06 | No | yes | 94 | No | Yes | –
NC1(C(=O)O)CCCC12C(C(=O)O)C2c1ccccc1 (centres unmarked) [Compound 16, Spiro[2.4]heptane4-amino-2-phenyl-1,4-dicarboxylic Acid] | – | Yes | No | 100 | No | Yes | 1e-09
NC(C(=O)O)C1CCCC12CC2C(=O)O (centres unmarked) [Compound 26, Spiro[4,2]heptane-1-carboxy-4-glycine] | – | Yes | Yes | 88 | No | Yes | 1.6e-06
NC1(C(=O)O)CC2(CC2C(=O)O)c2ccccc21 (centres unmarked) [Compound 22, 1-Amino-1-carboxyindan-3-spiro-cyclopropanecarboxylic Acid] | 8.7e-10 | No | No | – | No | No | –
